Test results published in patent publication US4895842A, “Phenylalanine derivative and proteinase inhibitor” (Shosuke Okamoto, priority 1985, dated 1990).
Where a name gives a salt, the structure may show the parent alone. Read-outs that look alike come from different tables or passages of the source.

Legend:
[1] = target: human plasma kallikrein (Homo sapiens, UniProt P03952); test: Anti-plasma kallikrein activity: inhibition of S-2302 decomposition; assay type: biochemical; details: S-2302 substrate, read-out: Plasma Kallikrein S-2302 (I50)
Chain of human plasma kallikrein (P03952 391-638 limits assumed): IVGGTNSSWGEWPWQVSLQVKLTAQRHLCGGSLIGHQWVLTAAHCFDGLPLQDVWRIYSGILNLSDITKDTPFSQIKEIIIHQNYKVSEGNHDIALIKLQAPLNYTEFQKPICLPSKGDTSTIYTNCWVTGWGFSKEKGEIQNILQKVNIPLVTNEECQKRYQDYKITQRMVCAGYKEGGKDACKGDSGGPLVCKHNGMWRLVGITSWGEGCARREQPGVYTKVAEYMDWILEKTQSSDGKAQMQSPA
Chain of human plasma kallikrein (P03952 20-390 partner limits assumed): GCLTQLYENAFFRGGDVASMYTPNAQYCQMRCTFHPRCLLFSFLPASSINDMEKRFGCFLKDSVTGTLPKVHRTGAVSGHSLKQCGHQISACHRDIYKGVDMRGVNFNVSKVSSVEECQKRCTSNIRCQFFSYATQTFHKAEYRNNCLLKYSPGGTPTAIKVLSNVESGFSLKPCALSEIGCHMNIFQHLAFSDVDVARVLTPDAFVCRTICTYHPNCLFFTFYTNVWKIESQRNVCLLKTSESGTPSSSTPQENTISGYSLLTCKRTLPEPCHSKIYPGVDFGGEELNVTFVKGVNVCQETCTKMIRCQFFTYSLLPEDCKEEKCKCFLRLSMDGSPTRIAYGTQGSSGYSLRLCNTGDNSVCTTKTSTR

[2] = target: human urokinase (Homo sapiens, UniProt P00749); test: biochemical; details: S-2444 substrate, read-out: Urokinase S-2444 (I50)
Protocol: Determination of inhibition activity for S-2444 decomposition
An inhibitor sample is dissolved in a 0.05M Tris-hydrochloric acid buffer solution (pH=8.8) to make the total volume to 400 μl. To this solution, 50 μl of a 1 mM S-2444 solution is added and the mixture is incubated at a temperature of 37° C. for 5 minutes in a constant temperature bath. Then, 50 μl of a 500 unit/ml human urokinase is added and the mixture is incubated at a temperature of 37° C. for 5 minutes. Thereafter, 50 μl of 50% acetic acid is added to terminate the reaction. The absorbance of the p-nitroaniline formed in the reaction mixture is measured at 405 nm. Thus, the concentration I50 (μmol) of the inhibitor sample, at which the absorbance is one half (i.e., 1/2) of that obtained in the absence of the inhibitor sample, is determined.

[3] = target: T1, human plasmin (Homo sapiens, UniProt P00747); test: Antiplasmin activity: inhibition of fibrin decomposition; assay type: biochemical; details: read-out: Plasmin Fibrin (I50)
T1 sequence (P00747 581-810 limits assumed): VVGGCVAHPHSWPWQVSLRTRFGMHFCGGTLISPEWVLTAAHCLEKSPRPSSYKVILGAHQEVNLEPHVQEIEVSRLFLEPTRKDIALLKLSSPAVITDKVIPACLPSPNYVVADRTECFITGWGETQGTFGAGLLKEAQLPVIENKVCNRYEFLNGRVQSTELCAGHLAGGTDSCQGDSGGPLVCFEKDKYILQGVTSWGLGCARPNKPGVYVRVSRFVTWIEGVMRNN
T1 sequence (P00747 97-580 partner limits assumed): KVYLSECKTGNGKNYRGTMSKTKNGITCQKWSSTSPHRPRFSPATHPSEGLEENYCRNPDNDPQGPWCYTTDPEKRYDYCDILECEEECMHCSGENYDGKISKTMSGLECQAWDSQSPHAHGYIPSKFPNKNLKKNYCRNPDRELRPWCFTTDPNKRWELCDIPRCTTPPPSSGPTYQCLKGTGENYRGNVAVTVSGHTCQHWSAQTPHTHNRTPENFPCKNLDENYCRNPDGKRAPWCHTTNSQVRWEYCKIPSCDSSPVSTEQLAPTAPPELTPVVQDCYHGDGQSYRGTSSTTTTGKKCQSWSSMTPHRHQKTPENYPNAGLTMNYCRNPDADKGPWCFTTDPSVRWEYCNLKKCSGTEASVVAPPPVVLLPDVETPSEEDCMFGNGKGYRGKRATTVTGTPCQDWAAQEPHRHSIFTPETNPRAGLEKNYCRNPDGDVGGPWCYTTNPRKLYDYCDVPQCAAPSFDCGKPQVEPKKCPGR
Protocol: (i) Determination of inhibition activity for fibrin decomposition
An inhibitor sample is dissolved in a 0.18M borate-physiological salt buffer solution (pH=7.4) to make the total volume to 600 μl. To this buffer solution, 200 μl of a 0.2% bovine fibrinogen, 100 μl of a 0.3 casein unit/ml human plasmin solution, and 100 μl of a 50 unit/ml bovine thrombin solution, all dissolved in the above-mentioned buffer, are added at a temperature of 37° C. in a constant temperature bath. Then, the dissolution time of the fibrin mass formed above is determined.

[4] = target: T2, bovine thrombin (Bos taurus, UniProt P00735); test: Antithrombin activity: inhibition of fibrin formation from fibrinogen; assay type: biochemical
Protocol: (i) Determination of inhibition activity against fibrin formation
An inhibitor sample is dissolved in a 0.18M borate-physiological salt buffer solution (pH=7.4) to make the total volume to 500 μl. To this solution, 400 μl of a 0.2% bovine fibrinogen solution and 100 μl of a 4 unit/ml bovine thrombin solution are added at a temperature of 37° C. in a constant temperature bath. Thus, a coagulation time is determined. The inhibitor concentration I50 (μmol), at which the coagulation time obtained in the absence of the inhibitor is extended twice, is determined.

[5] = target: T3, bovine trypsin (Bos taurus, UniProt P00760); test: Antitrypsin activity: inhibition of S-2238 decomposition; assay type: biochemical; details: S-2238 substrate, read-out: Trypsin S-2238 (I50)
T3 sequence (P00760 24-246): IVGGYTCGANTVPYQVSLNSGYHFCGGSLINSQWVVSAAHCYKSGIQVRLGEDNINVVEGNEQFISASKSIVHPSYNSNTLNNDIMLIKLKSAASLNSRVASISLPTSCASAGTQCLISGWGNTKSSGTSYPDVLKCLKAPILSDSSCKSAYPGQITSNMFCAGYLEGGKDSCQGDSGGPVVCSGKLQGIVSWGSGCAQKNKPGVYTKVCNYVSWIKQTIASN
Protocol: Determination of inhibition activity against S-2238 decomposition
An inhibitor sample is dissolved in a 0.05M Tris-imidazole buffer solution (pH=8.1) and 125 μl of a 1 mM S-2238 solution is added to make the total volume to 1.20 ml. The mixture is incubated at a temperature of 37° C. for 5 minutes in a constant temperature bath. To this mixture, 0.05 ml of bovine trypsin is added and the absorbance, at 405 nm, of the p-nitroaniline formed per minute is determined at a temperature of 37° C. by using the so-called initial velocity method. Thus, the concentration I50 (μmol) of the inhibitor sample, at which the absorbance is one half (i.e., 1/2) of that obtained in the absence of the inhibitor sample, is determined.

[6] = target: T1, human plasmin; test: biochemical; details: read-out: Plasmin S-2251 (I50)
Protocol: An inhibitor sample is dissolved in a 0.05M Tris-hydrochloric acid buffer solution (pH=7.4) to make the total volume of 400 μl. […] Then, 50 μl of a 0.2 casein unit/ml human plasmin is added and the mixture is incubated at a temperature of 37° C. for 4 minutes. Thereafter, the reaction is stopped by adding 50 μl of 50% acetic acid.
Thus, the concentration I50 (μmol) of the inhibitor sample, at which the absorbance is one half (i.e., 1/2) of that obtained in the absence of the inhibitor, is determined.

[7] = target: T2, bovine thrombin; test: Antithrombin activity: inhibition of S-2238 decomposition; assay type: biochemical
Protocol: (ii) Determination of inhibition activity for S-2238 decomposition
An inhibitor sample is dissolved in a 0.05M Tris-hydrochloric acid buffer solution (pH=8.3) to make a total volume of 400 μl. To this solution, 50 μl of a 0.2 mM S-2238 solution is added and the mixture is incubated at a temperature of 37° C. for 5 minutes in a constant temperature bath. Then, 50 μl of a 0.2 unit/ml bovine thrombin solution is added thereto and the absorbance, at 405 nm, of the p-nitroaniline formed per minute is determined at a temperature of 37° C. by using the so-called initial velocity method. Thus, the concentration I50 (μmol) of the inhibitor sample at which the absorbance is one half (i.e., 1/2) of that obtained in the absence of the inhibitor sample, is determined.

[8] = Table 2, concentration at which fibrin dissolution time is extended twice, pH 7.4, 37° C.
[9] = Table 2, S-2238 substrate, pH 8.3, 37° C., read-out: Thrombin S-2238 (I50)
[10] = Table 4, comparative compounds of Table 3, pH 7.8
[11] = Table 4, comparative compounds of Table 3, pH 8.8
[12] = Table 4, comparative compounds of Table 3, coagulation time extended twice, read-out: Thrombin Fibrinogen (I50)
[13] = Table 4, comparative compounds of Table 3, pH 8.1
[14] = Table 4, comparative compounds of Table 3, S-2238 substrate, pH 8.3, read-out: Thrombin S-2238 (I50)

Row | IC50 ([1]; Table 2, pH 7.8, 37° C.) [µM] | IC50 ([2]; Table 2, pH 8.8, 37° C.) [µM] | IC50 [3, 8] [µM] | IC50 [4] [µM] | IC50 ([5]; Table 2, pH 8.1, 37° C.) [µM] | IC50 [6] [µM] | IC50 [7, 9] [µM] | IC50 [7] [µM] | IC50 [1, 10] [µM] | IC50 [2, 11] [µM] | IC50 [4, 12] [µM] | IC50 [5, 13] [µM] | IC50 [7, 14] [µM] | IC50 ([3]; Table 4, comparative compounds of Table 3, fibrin dissolution time extended twice) [µM] | IC50 ([6]; Table 4, comparative compounds of Table 3, S-2251 substrate, pH 7.4, 37° C.) [µM] | Compound
1 | 1.9 | 11 | 40 | > 50 | 0.3 | 27 | > 100 | – | – | – | – | – | – | – | – | NC[C@H]1CC[C@H](C(=O)N[C@@H](Cc2ccccc2)C(=O)Nc2ccc(C(=O)c3ccccc3)cc2)CC1 [Compound No. 1]
2 | 0.63 | 31 | 0.4 | > 100 | 0.77 | 1.8 | > 200 | – | – | – | – | – | – | – | – | CC(=O)c1ccc(NC(=O)[C@H](Cc2ccc(OCc3ccccc3)cc2)NC(=O)[C@H]2CC[C@H](CN)CC2)cc1 [Compound No. 3, N-(trans-4-aminomethylcyclohexylcarbonyl)-4-benzyloxy-L-phenylalanine 4-acetylanilide]
3 | 2 | 42 | 4.6 | > 500 | 1.1 | 1.3 | 230 | – | – | – | – | – | – | – | – | COc1ccc(C[C@H](NC(=O)[C@H]2CC[C@H](CN)CC2)C(=O)Nc2ccc(C(C)=O)cc2)cc1 [Compound No. 6, N-(trans-4-aminomethylcyclohexylcarbonyl)-4-methoxy-L-phenylalanine 4-acetylanilide]
4 | – | – | 0.095 | > 50 | 1 | – | – | > 100 | – | – | – | – | – | – | – | CC(=O)c1ccc(NC(=O)[C@H](Cc2ccc(OCc3cccc(Cl)c3)cc2)NC(=O)[C@H]2CC[C@H](CN)CC2)cc1 [Compound No. 35, N-(trans-4-aminomethylcyclohexylcarbonyl)-4-(3-chlorobenzyloxy)-L-phenylalanine 4-acetylanilide methane sulfonate]
5 | 4.5 | 130 | 1 | > 200 | 7.5 | 8.9 | > 400 | – | – | – | – | – | – | – | – | NC[C@H]1CC[C@H](C(=O)N[C@@H](Cc2ccc(OCc3ccccc3)cc2)C(=O)Nc2ccc(S(N)(=O)=O)cc2)CC1 [Compound No. 47, N-(trans-4-aminomethylcyclohexylcarbonyl)-4-benzyloxy-L-phenylalanine 4-sulfamoylanilide hydrochloride]
6 | 0.42 | 40 | 0.18 | > 250 | 0.67 | 1.4 | > 125 | – | – | – | – | – | – | – | – | NC[C@H]1CC[C@H](C(=O)N[C@@H](Cc2ccc(OCc3ccccc3)cc2)C(=O)Nc2ccnc(Cl)c2)CC1 [Compound No. 59, N-(trans-4-aminomethylcyclohexylcarbonyl)-4-benzyloxy-L-phenylalanine 4-(2-chloro)pyridylamide hydrochloride]
7 | 17 | > 400 | 0.33 | > 50 | 0.45 | 1.1 | > 100 | – | – | – | – | – | – | – | – | CC1CCC(NC(=O)[C@H](Cc2ccc(OCc3ccccc3)cc2)NC(=O)c2ccc(CN)cc2)CC1C (stereo partly drawn) [Compound No. 80, N-(4-aminomethylbenzoyl)-4-benzyloxy-L-phenylalanine 3,4-dimethylcyclohexylamide hydrochloride]
8 | 0.14 | 8 | 0.27 | > 100 | 1.5 | 0.63 | > 400 | – | – | – | – | – | – | – | – | CC(=O)c1ccc(NC(=O)[C@H](Cc2ccc(Oc3ccc([N+](=O)[O-])cc3)cc2)NC(=O)[C@H]2CC[C@H](CN)CC2)cc1 [Compound No. 95, N-(trans-4-aminomethylcyclohexylcarbonyl)-4-(4-nitrophenoxy)-L-phenylalanine 4-acetylanilide hydrochloride]
9 | 350 | > 500 | 18 | > 250 | 22 | 29 | > 100 | – | – | – | – | – | – | – | – | NCc1ccc(C(=O)N[C@@H](Cc2ccc(OCc3ccccc3)cc2)C(=O)NCc2ccncc2)cc1 [Compound No. 96, N-(4-aminomethylbenzoyl)-4-benzyloxy-L-phenylalanine 4-picolylamide dihydrochloride]
10 | 0.18 | 19 | 0.43 | > 200 | 0.24 | 0.95 | 280 | – | – | – | – | – | – | – | – | CC(=O)c1ccc(NC(=O)[C@H](Cc2ccc(Oc3ccc([N+](=O)[O-])cn3)cc2)NC(=O)[C@H]2CC[C@H](CN)CC2)cc1 [Compound No. 121, N-(trans-4-aminomethylcyclohexylcarbonyl)-4-(5-nitro-2-pyridyloxy)-L-phenylalanine 4-acetylanilide hydrochloride]
11 | 0.43 | 34 | 0.31 | > 50 | 1 | 1.1 | > 200 | – | – | – | – | – | – | – | – | CC(=O)c1ccc(NC(=O)[C@H](Cc2ccc(OCc3cccc(C#N)c3)cc2)NC(=O)[C@H]2CC[C@H](CN)CC2)cc1 [Compound No. 122, N-(trans-4-aminomethylcyclohexylcarbonyl)-4-(3-cyanobenzyloxy)-L-phenylalanine 4-acetylanilide hydrochloride]
12 | 0.66 | 37 | 0.58 | > 200 | 1.2 | 0.9 | > 400 | – | – | – | – | – | – | – | – | NC[C@H]1CC[C@H](C(=O)N[C@@H](Cc2ccc(Oc3cc(Cl)ccc3[N+](=O)[O-])cc2)C(=O)Nc2ccncc2)CC1 [Compound No. 137, N-(trans-4-aminomethylcyclohexylcarbonyl)-4-(3-chloro-6-nitrophenoxy)-L-phenylalanine 4-pyridylamide dihydrochloride]
13 | – | – | – | – | – | – | – | – | > 1000 | > 1000 | > 1000 | > 1000 | > 1000 | – | – | NC[C@H]1CC[C@H](C(=O)O)CC1 [Table 3 Compound No. 1, tranexamic acid, reference compound]
14 | – | – | – | – | – | – | – | – | > 1000 | > 1000 | > 1000 | > 300 | > 1000 | > 1000 | > 1000 | NCc1ccc(C(=O)NC(Cc2ccccc2)C(=O)N2CCCCC2)cc1 (stereo not shown) [Table 3 Compound No. 3, reference compound]
15 | – | – | 0.68 | > 500 | 1.8 | – | > 1000 | – | – | – | – | – | – | – | – | NC[C@H]1CC[C@H](C(=O)N[C@@H](Cc2ccc(OCc3ccccc3)cc2)C(=O)Nc2ccncc2)CC1 [compound 40]
